The record followed here is publication PMC10825133, “Repurposing proteasome inhibitors for improved treatment of triple-negative breast cancer” (Cell Death Discovery, 2024).

Data set [1] concerns MDA-MB-453 cells. The data set is described as follows: Resazurin-based cell viability assay, monotherapy drug screen. Details: species or system human; AUC: scale not given here. To be noted: MDA-MB-453; for AUC: area under the dose response curve, 24 h; for GRmax: drug efficacy at highest tested dose (<0 cytotoxic, 0 cytostatic, >0 partial growth inhibition). As to the method: (§1) Eighteen pharmaceutical compounds were purchased from Selleckchem. […] The stock solutions were stored at -80°C. […] New drug plates were prepared for each drug screen.
(§2) To determine the optimal seeding density and ensure that the cells were in the exponential phase during the duration of the experiment (approx. 52h), each cell line (BT-549, CAL-148, HCC1806, HCC38, HCC70, MCF-10A, MCF-7, MDA-MB-436, MDA-MB-453, and MDA-MB-468) was seeded at different concentrations (1000 to 16000 cells) per 96-well, as previously described. Cell viability was measured daily (day 0 [plating day] to day 4) using 0.2 mg/ml resazurin solution prepared from resazurin sodium salt (Fisher Scientific) dissolved in sterile 1xPBS (ThermoFisher Scientific). Before use, the resazurin solution was brought to RT before 10 µl (10% of cell medium volume) was added to each 96-well and incubated for 4h at 37°C. The absorbance was measured with a 560 nm excitation filter and a 615 nm emission filter in a Wallac 1420 VICTOR2™ microplate reader (Perkin Elmer). The slope of the curve was used to determine the optimal seeding density, i.e., the highest seeding density with linear growth between days 1 and 3.

Data set [2] has as its system HCC1806 cells. The description is as above. Details: species or system human; AUC: scale not given here. To be noted: HCC1806; for AUC: area under the dose response curve, 24 h; for GRmax: drug efficacy at highest tested dose (<0 cytotoxic, 0 cytostatic, >0 partial growth inhibition). On the procedure:
as §1, §2

Data set [3] deals with MCF-10A cells. The description is as above. Details: species or system human; AUC: scale not given here. To be noted: for AUC: area under the dose response curve, 24 h; for GRmax: drug efficacy at highest tested dose (<0 cytotoxic, 0 cytostatic, >0 partial growth inhibition). On the procedure: as §1, §2
For data set [4], the system named is HCC38 cells. The data set is described as above. Details: species or system human; AUC: scale not given here. To be noted: HCC38; for AUC: area under the dose response curve, 24 h; for GRmax: drug efficacy at highest tested dose (<0 cytotoxic, 0 cytostatic, >0 partial growth inhibition). As to the method: as §1, §2
Data set [5] relates to MDA-MB-468 cells. Described as above. Also on record: species or system human; AUC: scale not given here. To be noted: MDA-MB-468; for AUC: area under the dose response curve, 24 h; for GRmax: drug efficacy at highest tested dose (<0 cytotoxic, 0 cytostatic, >0 partial growth inhibition). On the procedure: as §1, §2
In data set [6] the test system is BT-549 cells. The data set is described as above. Details: species or system human; AUC: scale not given here. To be noted: BT-549; for AUC: area under the dose response curve, 24 h; for GRmax: drug efficacy at highest tested dose (<0 cytotoxic, 0 cytostatic, >0 partial growth inhibition). On the procedure: as §1, §2
Data set [7] concerns MCF-7 cells. Described as above. Also on record: species or system human; AUC: scale not given here. To be noted: MCF-7; for AUC: area under the dose response curve, 24 h; for GRmax: drug efficacy at highest tested dose (<0 cytotoxic, 0 cytostatic, >0 partial growth inhibition). As to the method:
as §1, §2

In data set [8] the test system is HCC70 cells. The description is as above. To be noted: HCC70; for AUC: area under the dose response curve, 24 h; for GRmax: drug efficacy at highest tested dose (<0 cytotoxic, 0 cytostatic, >0 partial growth inhibition). Also on record: species or system human; AUC: scale not given here. On the procedure: as §1, §2
The test system of data set [9] is MDA-MB-436 cells. The description is as above. Details: species or system human; AUC: scale not given here. To be noted: MDA-MB-436; for AUC: area under the dose response curve, 24 h; for GRmax: drug efficacy at highest tested dose (<0 cytotoxic, 0 cytostatic, >0 partial growth inhibition). As to the method:
as §1, §2

In data set [10] the test system is eight TNBC cell lines (BT-549, CAL-148, HCC1806, HCC38, HCC70, MDA-MB-436, MDA-MB-453, MDA-MB-468). The data set is described as follows: Monotherapy drug screen, mean across the TNBC cell lines. On the procedure:
(§3) Eighteen pharmaceutical compounds were purchased from Selleckchem (Supplementary Table 2). Stock solutions were prepared using dimethyl sulfoxide (DMSO; Merck), physiological saline (sodium chloride 0.9%) or Milli-Q water, and stored at −80 °C. […] Matched concentration solvent vehicle controls were used for each drug concentration. The drug screens were performed in triplicate and repeated three (monotherapy) or two (combination therapy) times (Fig. 7).
(§4) The optimal seeding density per 96-well was determined for each cell line as previously described. The cells were seeded at a density of 4.0 × 10^3 to 7.5 × 10^3 (cell type dependent) in 96-well clear, flat-bottom microplates (Corning Life Sciences, Sigma-Aldrich) in 100 µl complete culture medium (Supplementary Table 1) and cultured for 24 h. Cell viability was determined using the resazurin assay in untreated cells at the time of plating (t = 0) and treated cells after 24 h drug treatment (Fig. 7). Percentage cell viability was calculated as 100% × (absorbance of treated cells – absorbance of background controls) / (absorbance of matched solvent vehicle controls – absorbance of background controls). The area under the curve (AUC), half-maximal inhibitory concentration (IC50), drug potency (GR50), and drug efficacy (GRmax) were determined for each compound using the GRmetrics (version 1.20.0) package in R. The monotherapy data were evaluated with the IDACombo (version 1.0.2) package in R to predict potential drug combinations (Table 1). SynergyFinder (version 3.2.10) package in R was used to identify synergistic drug combinations.
(§5) Eighteen pharmaceutical compounds were purchased from Selleckchem. […] The solubility of the compound was enhanced by pre-heating the solvent (lukewarm), if necessary. […] The stock solutions were stored at -80°C. […] Matched concentration solvent vehicle controls were used for each drug concentration. The drug screens were performed in triplicate and repeated three times for the monotherapies and twice for the combination treatments. The drug(s) and corresponding controls were plated in 96-well PCR plates (VWR) and stored at -20°C (Fig. 6). The drug plates were thawed, centrifuged (3000 rpm for 30s), and acclimatized to RT before the drugs were added to the cells. New drug plates were prepared for each drug screen.
(§6) The cells were seeded at a density of 4.0x10^3 to 7.5x10^3 (cell type-dependent) in 96-well clear, flat-bottom microplates (Corning Life Sciences, Sigma-Aldrich) in 100 µl culture medium supplemented with 10% FBS and cultured for 24h. Cell viability was determined using the resazurin assay after 24h drug treatment (Fig. 6). Percentage cell viability was calculated as 100% × (absorbance of treated cells – absorbance of background controls) / (absorbance of matched solvent vehicle controls – absorbance of background controls). Normalized growth rate inhibition (GR) was assessed using the absorbance of untreated cells after the time of plating (t = 0). […] For combination treatment, the monotherapy data were evaluated with the IDACombo (version 1.0.2)[20] package in R to predict potential drug combinations (Table 1). SynergyFinder (version 3.2.10)[21] package in R was used to identify synergistic drug combinations.

For data set [11], the system named is CAL-148 cells. Briefly: Resazurin-based cell viability assay, monotherapy drug screen. Details: species or system human; AUC: unit not given beside the values. To be noted: CAL-148; for AUC: area under the dose response curve, 24 h; for GRmax: drug efficacy at highest tested dose (<0 cytotoxic, 0 cytostatic, >0 partial growth inhibition). As to the method:
as §3, §4, §5
Cell viability was measured daily (day 0 [plating day] to day 4) using 0.2 mg/ml resazurin solution prepared from resazurin sodium salt (Fisher Scientific) dissolved in sterile 1xPBS (ThermoFisher Scientific). Before use, the resazurin solution was brought to RT before 10 µl (10% of cell medium volume) was added to each 96-well and incubated for 4h at 37°C. […] The slope of the curve was used to determine the optimal seeding density, i.e., the highest seeding density with linear growth between days 1 and 3.
as §6
Background: Resazurin is reduced to fluorescent resorufin, in cell work by metabolically active cells.

For `CCCc1ccc(OCC(=O)N(Cc2nc(-c3cccnc3)no2)C(C)C)cc1` [PI-1840], the AUC in data set [1] turned out to be 1.0; in data set [2] it was 1.0; in data set [3], 1.0; in data set [4], 1.0; in [5], 0.98; in data set [6], 0.99. Besides, the AUC in data set [7], in data set [8], in data set [9] and in [11] was 1.0 in each case. Moreover, the GRmax in data set [1] worked out at 0.93; in data set [2] it was 0.98; in [3], 1.0; in [4], 1.0; in data set [5], 0.96; in data set [6] it was 1.0. The GRmax in [7] is 0.97; in [8], 1.0; in data set [9] it was 1.0; in data set [11], 1.0. In [10], the “cytotoxic effect at the highest dose” value was “lowest cytotoxic effects”.

As a reminder, the IC50 is the concentration at which inhibition is half-maximal. As for `O=[N+]([O-])c1ccc(S(=O)(=O)N2CCN(c3ccnc4cc(Cl)ccc34)CC2)c([N+](=O)[O-])c1` [VR-23], the AUC in data set [1] was found to be 0.99; in data set [2], 1.0; in [3], 1.0; in data set [4] it was 1.0; in data set [5], 0.97; in [6] it was 0.98. The AUC in [7] is reported as 0.98; in [8], 0.98; in data set [9] it was 1.0; in data set [11], 1.0. The GRmax in data set [1] is given as 0.40; in [2] it was 0.93; in [3], 1.0; in [4] it was 0.95; in [5], 0.74; in data set [6], 0.85. For the same molecule, the GRmax is 0.82 in data set [7], 0.82 in [8], 1.0 in data set [9] and 0.95 in [11]. The IC50 in data set [7] (24 h drug treatment, read-out: IC50) amounted to 6 µM. In addition, in data set [10], the “cytotoxic effect at the highest dose” value was “lowest cytotoxic effects”.
